Measured values from US20040023884A1, “Biologically active peptides from functional domains of bactericidal/permeability-increasing protein and uses thereof” (priority 1993, published 2004).
In brackets after ≈: the same amount, converted by molar mass. Square brackets hold non-standard residues; d marks the D form. Ends that are not written are not given here. Peptide text beside a SMILES is read from it. 1Nal = N[C@@H](Cc1cccc2ccccc12)C(=O)O

Tests used:
[1] = system: E. coli 0111:B4 (smooth) bacteria; assay: Radial diffusion bactericidal assay, E. coli 0111:B4; type: cell-based; conditions: radial diffusion; PROBIT analysis; E. coli O111:B4 (smooth)
[2] = system: RAW 264.7 cells; assay: LPS neutralization cellular proliferation assay, RAW 264.7 cells; type: cell-based, mouse
Protocol: In this assay, mouse RAW 264.7 cells (ATCC Accession No. T1B71), maintained in RPMI 1640 media (GIBCO), supplemented with 10 mM HEPES buffer (pH 7.4), 2 mM L-glutamine, penicillin (100U/mL), streptomcin (100 μg/mL), 0.075% sodium bicarbonate, […] 2-mercaptoethanol and 10% fetal bovine serum (Hyclone, Inc., Logan, Utah), were first induced by incubation in the presence of 50U/mL recombinant mouse y-interferon (Genzyme, Cambridge, Mass.) for 24 h prior to assay. Induced cells were then mechanically collected and centrifuged at 500×g at 4° C. and then resuspended in 50 mL RPMI 1640 media (without supplements), re-centrifuged and again resuspended in RPMI 1640 media (without supplements). The cells were counted and their concentration adjusted to 2×10^5 cells/mL and 100 μL aliquots were added to each well of a 96-well microtitre plate. The cells were then incubated for about 15 hours with E. coli O113 LPS (Control Standard. Assoc. of Cape Cod. Woods Hole, Mass.), which was added in 100 μL/well aliquots at a concentration of […] in serum-free RPMI 1640 media (this concentration being the result of titration experiments in which LPS concentration was varied between 50 pg/mL and 100 ng/mL). This incubation was performed in the absence or presence of BPI functional domain peptides in varying concentrations between 25 ng/mL and 50 μg/mL. Recombinant human BPI was used as a positive control at a concentration of 1 μg/mL. Cell proliferation was quantitatively measured by the addition of 1 μCi/well [^3H]-thymidine 5 hours after the time of initiation of the assay. After the 15-hour incubation, labeled cells were harvested onto glass fiber filters with a cell harvester (Inotech Biosystems, EQ-384, Sample Processing and Filter Counting System, Lansing, Mich.).

[3] = system: Staphylococcus aureus; assay: Radial diffusion bactericidal assay, Staphylococcus aureus; type: cell-based; conditions: radial diffusion; PROBIT analysis; S. aureus
[4] = system: C. albicans; assay: Radial diffusion fungicidal assay, Candida albicans; type: cell-based; conditions: radial diffusion
[5] = 3H-heparin binding assay (affinity and capacity); conditions: for Heparin Capacity: heparin bound at saturation; for Kd: read-out: Heparin Affinity; for cpm ^3H-Heparin bound: 100 picomoles of each fragment per well, saturating 3H-heparin 20 μg/mL, mean of duplicate wells ± range
Outline: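 Bound 3H-heparin was counted by liquid scintillation after 1 h incubation at 4 °C with fragments immobilised on PVDF-bottomed wells, then washing in blocking buffer. Signal was corrected for BSA-related background, and varying amounts of rBPI23 were used as positive control.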

[6] = system: rough mutant E. coli J5 bacteria; assay: Radial diffusion bactericidal assay, E. coli J5; type: cell-based; conditions: radial diffusion; PROBIT analysis; E. coli J5 (rough)
Outline: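 Wells received 5 or 10 μL of BPI fragment, pre-incubated 3 h at 37 °C. The underlayer agarose carried washed log-phase organisms at 4×10^6 CFU/mL.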

[7] = system: E. coli 0113 LPS; assay: Limulus Amoebocyte Lysate (LAL) inhibition assay; type: biochemical
Protocol: BPI proteolytic fragments produced according to Example 1 were subjected to a Limulus Amoebocyte Lysate (LAL) inhibition assay to determine LPS binding properties of these fragments. Specifically, each of the fragments were mixed in Eppendorf tubes with a fixed concentration of E. coli 0113 LPS (4 ng/mL final concentration) and incubated at 37° C. for 3 hours with occasional shaking. Addition controls comprising rBPI23 at 0.05 μg/mL were also tested. Following incubation, 360 μL of Dulbecco's phosphate buffered saline (D-PBS; Grand Island Biological Co. (GIBCO), Long Island, N.Y.) were added per tube to obtain an LPS concentration of 200 pg/mL for the LAL assay. Each sample was then transferred into Immulon II strips (Dynatech, Chantilly, Va.) in volumes of 50 μl per well.
Limulus amoebocyte Lysate (Quantitative Chromogenic LAL kit, Whitaker Bioproducts, Inc., Walkersville, Md.) was added at 50 μL per well and the wells were incubated at room temperature for 25 minutes. Chromogenic substrate was then added at a volume of 100 μL per well and was well mixed. After incubation for 20 to 30 minutes at room temperature, the reaction was stopped with addition of 100 μL of 25% (v/v) acetic acid. Optical density at 405 nm was then measured in a multiplate reader (Model Vmax, […], Menlo Park, Calif.) with the results shown in FIG. 2 in terms of percent inhibition of LPS. In this Figure, the filled circle represents rBPI23; the open circle represents Asp-N fragment A3; the x represents Asp-N fragment A2, the filled square represents Asp-N fragment A4; the filled triangle represents Asp-N fragment A1A2; the open square represents Asp-N fragment A6a; the small open triangle represents CNBr fragment C3; and the small filled square represents CNBr fragment C1/C5.

| Compound | pmol added to well to achieve a 30 mm^2 bactericidal zone, E. coli O111:B4 [1] | EC50 (peptide concentration at which the growth inhibitory effect of LPS was reversed by 50%) [2] [µg/mL] | pmol added to well to achieve a 30 mm^2 bactericidal zone, S. aureus [3] | C. albicans: pmol required for 30 mm^2 zone [4] [pmol] | Heparin Capacity [5] [ng] | Kd [5] [nM] | pmol added to well to achieve a 30 mm^2 bactericidal zone, E. coli J5 [6] | IC50 (peptide concentration at which RAW cell growth was inhibited by 50%) [2] | amount required to inhibit the LAL assay, fold higher than 116-193 fragment / rBPI23 [7] [fold] | cpm ^3H-Heparin bound [5] |
| --- | --- | --- | --- | --- | --- | --- | --- | --- | --- | --- |
| CC[C@H](C)[C@H](NC(=O)[C@H](CC(C)C)NC(=O)[C@H](Cc1cccc2ccccc12)NC(=O)CNC(=O)[C@@H](NC(=O)[C@H](CCCCN)NC(=O)[C@H](CO)NC(=O)[C@@H](N)CCCCN)C(C)C)C(=O)N[C@@H](CCC(N)=O)C(=O)N[C@@H](CC(C)C)C(=O)N[C@@H](Cc1ccccc1)C(=O)N[C@@H](Cc1c[nH]cn1)C(=O)N[C@@H](CCCCN)C(=O)N[C@@H](CCCCN)C(=O)O [BPI.83] (H-KSKVG[1Nal]LIQLFHKK-OH) | 51,147.55 pmol | 1.2 ± 0.1 | 116,500.54 pmol | 1804.26 | 253.3 | 410 | 164.84 pmol | – | – | – |
| CC[C@H](C)[C@H](N)C(=O)N[C@@H](CCCCN)C(=O)N[C@H](C(=O)N[C@@H](CO)C(=O)NCC(=O)N[C@@H](CCCCN)C(=O)N[C@@H](Cc1cccc2ccccc12)C(=O)N[C@@H](CCCCN)C(=O)N[C@@H](C)C(=O)N[C@@H](CCC(N)=O)C(=O)N[C@@H](Cc1ccccc1)C(=O)N[C@@H](CCCNC(=N)N)C(=O)N[C@@H](Cc1ccccc1)C(=O)N[C@@H](CC(C)C)C(=O)N[C@@H](CCCCN)C(=O)N[C@@H](CCCCN)C(=O)N[C@@H](CO)C(=O)N[C@@H](CCCCN)C(=O)N[C@H](C(=O)NCC(=O)N[C@@H](Cc1c[nH]c2ccccc12)C(=O)N[C@@H](CC(C)C)C(=O)N[C@H](C(=O)N[C@@H](CCC(N)=O)C(=O)N[C@@H](CC(C)C)C(=O)N[C@@H](Cc1ccccc1)C(=O)N[C@@H](Cc1c[nH]cn1)C(=O)N[C@@H](CCCCN)C(=O)N[C@@H](CCCCN)C(=O)O)[C@@H](C)CC)C(C)C)[C@@H](C)CC [BPI.93] (H-IKISGK[1Nal]KAQFRFLKKSKVGWLIQLFHKK-OH) | 10,118.98 pmol | 0.9 ± 0.25 | b (no detectable activity up to 5 μg/well) | >980.27 | 291.5 | 387 | 212.87 pmol | 9.7 ± 0.1 µg/mL (≈ 2.73 µM) | – | – |
| A1: Asp-N fragment of rBPI23, region 1-38 as printed in Table II (A1 A2 in Table I) (VNPGVVVRISQKGLDYASQQGTAALQKELKRIKIPDYS; Asp-N fragment; UniProt P17213 32-69, looked up, fragment) | – | – | – | – | – | – | – | – | 10 | 17,002 ± 479 cpm |
| A4: Asp-N fragment of rBPI23, residues 57-104 (DIREFQLPSSQISMVPNVGLKFSISNANIKISGKWKAQKRFLKMSGNF; UniProt P17213 88-135, looked up, fragment) | – | – | – | – | – | – | – | – | 10 | 33,159 ± 1.095 cpm |
| KSKVGWLIFLFHKK [BPI.91] | b (no detectable activity up to 5 μg/well) | – | b (no detectable activity up to 5 μg/well) | >3843.54 | 181.2 | 288 | 21,014.73 pmol | — (No proliferation decrease up to 50 μg/ml) | – | – |
